Assays:
[1] = NANA and Neu5Gc concentrations in cerebrospinal fluid after a single oral NANA dose; assay type: in vivo, rat; settings: single oral dose NANA 200 mg/kg
Procedure: To assess whether NANA is bioavailable to the brain in its native form or whether NANA is processed on its way across the blood-brain barrier, the levels of NANA and one of its potential metabolites were measured in rat cerebrospinal fluid (CSF). The animals' diets were first cleared of NANA by placing them on NANA-free diets for one week. The animals were then given a single, oral dose of NANA (200 mg/kg), and the CSF of each animal was sampled at 0, 0.25, 1, 2, 4, and 6 hours after dosing. The concentrations of NANA and Neu5Gc in the CSF were then assessed by high-pressure liquid chromatography coupled with fluorescence detection methods and quantitation standards.

[2] = tested on: myelin basic protein (MBP) expression in the developing whole brain; assay: MBP expression by western blot of whole brain lysates of offspring after maternal NANA supplementation; assay type: in vivo, Long-Evans rats
Source text: (§1) To determine the effects of supplementing maternal diets with sialic acid (n-acetylneuraminic acid; NANA) on the brain development of the offspring, forty (40) pregnant Long-Evans rats were placed on four (4) diets (10 dams per diet) that differed in their administration of sialic acid (Nacalai, San Diego, Calif.). All animals were started on the diets on the 4th day after being mated (gestational day 4).
Dams placed on the gestational diet (“Gest”) received NANA (200 milligrams (mg) per kilogram (kg) body weight per day (d)) only during gestation. These animals were then placed on a base diet after the offspring were born. Conversely, dams on the lactational diet (“fact”) were placed on the base diet during gestation but received NANA (200 mg/kg/d) through the diet during lactation. Dams receiving NANA (200 mg/kg/d) through the diet throughout gestation and lactation were known as the “G+L” group.
After birth, the pups born to each diet group were crossfostered within their respective group to control for any differences in maternal care. The litters were then culled to 10 pups per dam to prevent nutritional differences caused by lack of access to the dam. The study was also designed to allow for the use of 5 pups at each endpoint (N=5) while keeping the litter size equal across all groups. Pups were taken at postnatal day 1 (p1) to determine potential differences between gestational supplementation and lactational supplementation of the maternal diet. […] Pups were also taken at p8 because it served as a midway timepoint and because the primary biomarker used cannot be detected until this day in rat development.
To determine the effects of maternal NANA supplementation on the brain development of offspring, MBP expression was measured by western blot analysis of whole brain lysates that were harvested from pups at postnatal days 0, 8, and 16 described in FIG. 2. […]
The graphs represent the average intensity of MBP expression normalized by the corresponding actin signal in relative fluorescence units (Normalized R.F.U.).

hippocampal cultures = assay: Ex vivo neurite extension (Map2a staining) in hippocampal cultures from offspring of NANA-supplemented dams; parameters: species or system Long-Evans rats; settings: 6 days culture
Source text: as §1
[…] These animals were then placed on a base diet after the offspring were born. Conversely, dams on the lactational diet (“fact”) were placed on the base diet during gestation but received NANA (200 mg/kg/d) through the diet during lactation. […]
To determine the effects of maternal NANA supplementation on the brain development of offspring, neurite extension was measured in hippocampal cultures made from p0 pups described in FIG. 2. […] The number of cells in each culture was assessed by staining with 4′,6-diamidino-2-phenylindole (DAPI).
The percent area of Map2a staining was determined by computerized counting of all Map2a positive pixels in each image (5 random fields for each of 9-10 cultures per group; 1 culture per animal). […] A two-tailed, unpaired students t-test was used to compare the two groups, and the test detected a significant difference between the supplemented group and the control group (**, p<0.01). […]

[3] = tested on: MBP expression in the cerebellum; assay: MBP expression by western blot of offspring cerebellum after maternal NANA supplementation during lactation; assay type: in vivo, rat
Procedure: (§2) FIGS. 3A and 3B show the maternal NANA supplementation protocol for experiments testing additional doses of NANA administered during gestation (FIG. 3A) and lactation (FIG. 3B).
To further assess the effects of maternal NANA supplementation during lactation on the brain development of offspring, MBP expression was measured by western blot analysis of cerebellum that was harvested from pups at postnatal days 0, 8, and 16 described in FIG. 3B. As described in Example 2, the blots were probed with an antibody for MBP as described in Example 2 that recognizes the 18 kilodalton form (18 kD MBP) and 21 kilodalton form (21 kD MBP) and an antibody for β-actin as a protein loading control. Quantitation of MBP expression performed with densitometry of the bands in each lane, and each lane represented an individual animal as described in Example 2.
The graphs in FIGS. 12A and 12B represent the average intensity of MBP expression normalized by the corresponding actin signal in relative fluorescence units (Normalized R.F.U.).

[4] = tested on: thickness of MBP expression in white matter of p16 pup brain; assay: Thickness of MBP expression in offspring brain slices by MBP immunohistochemistry and confocal laser microscopy; assay type: in vivo, Long-Evans rats; settings: p16 pups
Source text: as §1, with “4). […]” for “4).”
as §2
To determine the effects of maternal NANA supplementation on the brain development of offspring, assessment of the CC and LOT was performed by taking thin slices of the p16 pup brain described in FIG. 2, staining the slices with MBP immunohistochemistry, and measuring the areas of interest with confocal laser microscopy. […] The locations of the LOT and regions associated with the anterior commissure (AC) are also illustrated in FIG. 7A. […]
(§3) To further assess the effects of maternal NANA supplementation during lactation on the brain development of offspring, assessment of the corpus callosum (CC) and lateral olfactory tract (LOT) was performed by taking thin slices of the p16 pup brain (LacDR p16) described in FIG. 3B, staining the slices with MBP immunohistochemistry, and quantitating the areas of interest with confocal laser microscopy as described in Example 2. Maternal supplementation with NANA at doses of 25 mg/kg/d, 50 mg/kg/d, 100 mg/kg/d and 200 mg/kg/d was tested.
as §3, with “motor pyramids” for “corpus callosum (CC)”, “medial lemniscus” for “lateral olfactory tract (LOT)”

[5] = mice, dams and pups lacking the gene to produce Neu5Gc; cited from earlier work
[6] = maternal NANA during lactation, at certain doses tested, ANOVA p<0.001
[7] = maternal NANA 25-200 mg/kg/d during gestation
[8] = maternal NANA 25-200 mg/kg/d during lactation, p<0.01 / p<0.001

CC(=O)N[C@H]1[C@H]([C@H](O)[C@H](O)CO)OC(O)(C(=O)O)C[C@@H]1O (some centres unmarked) [NANA, N-acetylneuraminic acid]
time at which CSF NANA returned to baseline values ([1]; rat CSF): ≤ 1 h
time of peak of native NANA in CSF after dosing ([1]; rat CSF): 15 min
blood-brain barrier crossing of native NANA ([1]; rat, from CSF levels): crossed the blood-brain barrier
expression of both MBP isoforms, lactational diet compared to NANA-deficient diet ([2]; NANA 200 mg/kg/d during lactation only, overall analysis and postnatal day 8, Tukey p<0.05): significantly increased
expression of 21 kDa MBP normalized to β-actin ([2]; whole brain of pups, maternal NANA 200 mg/kg/d in diet, one-way ANOVA p=0.012): significant increase
expression of 18 kDa MBP normalized to β-actin ([2]; whole brain of pups, maternal NANA 200 mg/kg/d in diet, one-way ANOVA p=0.037): significant increase
percent area of Map2a staining per neuron (neurite extension) (hippocampal cultures; dams fed NANA 25, 50, 100, 200 mg/kg/d during gestation, p<0.01 / p<0.001): significantly greater
percent area of Map2a staining per neuron (neurite extension) (hippocampal cultures; p0 pups, dams fed NANA 200 mg/kg/d during gestation, p<0.01 vs control): significantly greater
total MBP (combined 18 kDa and 21 kDa) in cerebellum ([3]; maternal NANA 25 mg/kg/d during lactation, p<0.01): significant increase
total MBP (combined 18 kDa and 21 kDa) in cerebellum ([3]; maternal NANA 100 mg/kg/d during lactation, p<0.05): significant increase
total MBP (combined 18 kDa and 21 kDa) in cerebellum ([3]; maternal NANA 200 mg/kg/d during lactation, p<0.01): significant increase
expression of 18 kDa MBP normalized to actin in cerebellum [3, 6]: significant increase
expression of 21 kDa MBP normalized to actin in cerebellum [3, 6]: significant increase
thickness of MBP expression in the motor pyramids ([4]; maternal NANA 50 mg/kg/d during lactation, p=0.022): significant increase
maximal thickness of MBP expression in the lateral olfactory tract (LOT) ([4]; maternal NANA 200 mg/kg/d during gestation, lactation or gestation plus lactation): significant increases
thickness of MBP expression in the corpus callosum (CC) ([4]; maternal NANA 200 mg/kg/d during gestation, lactation or gestation plus lactation, ANOVA p<0.001): significant increases
thickness of MBP expression in the middle CC [4, 7]: did not appear to change
thickness of MBP expression in the midline CC decussation [4, 7]: did not appear to change
thickness of MBP expression in the frontal CC ([4]; maternal NANA 25-200 mg/kg/d during gestation, p<0.001): significant increases
thickness of MBP expression in the LOT ([4]; maternal NANA 25-200 mg/kg/d during gestation, p<0.05 / p<0.001): significant increases
thickness of MBP expression in the medial lemniscus ([4]; maternal NANA 25-200 mg/kg/d during gestation, p<0.05 / p<0.01): significant increases
thickness of MBP expression in the motor pyramids ([4]; maternal NANA 25-200 mg/kg/d during gestation, p<0.05 to p<0.001): significant increases
thickness of MBP expression in the medial lemniscus ([4]; maternal NANA 25-200 mg/kg/d during lactation): no significant changes
thickness of MBP expression in the LOT ([4]; maternal NANA 25-200 mg/kg/d during lactation, p<0.001): significant increases
thickness of MBP expression in the midline CC [4, 8]: significant increases
thickness of MBP expression in the rostral CC [4, 8]: significant increases
thickness of MBP expression in the midline CC decussation ([4]; maternal NANA 25-200 mg/kg/d during lactation, p<0.05 / p<0.001): significant increases
thickness of MBP expression in the motor pyramids ([4]; maternal NANA during lactation, the other doses tested (25, 100, 200 mg/kg/d)): no significant changes

O=C(CO)N[C@H]1[C@H]([C@H](O)[C@H](O)CO)OC(O)(C(=O)O)C[C@@H]1O (some centres unmarked) [Neu5Gc, N-glycolylneuraminic acid]
transfer of Neu5Gc from fed dams to pups [5]: does not transfer
